The numbers were not newly measured in US20020160936A1, “HCV E2 PROTEIN BINDING AGENTS FOR TREATMENT OF HEPATITIS C VIRUS INFECTION” (priority 1999, published 2002), which cites them from elsewhere.

The subject of the series is hepatitis C virus. The conditions noted are these: subjects with chronic hepatitis C.

In the case of interferon-alpha, the long-term cure rate result is recorded as “less than 10%”.
